For test [1], the system named is CD19+ B cells and CD3+ T cells in the peripheral blood of SLE patients. The following applies: Jacobi et al 2010; cited from earlier work.
Test [2] has as its system bulk subpopulations of PBMCs from patients with SLE, RA and SSc. The test is described as follows: Effect of LX-101 on bulk PBMC subpopulations (percentage of live cells by flow cytometry). It counts as cell-based, human. The following applies: 17 μM LX-101, three days. From the text:
Frozen peripheral blood mononuclear cells (PBMCs) were obtained from Discovery Life Sciences from patients diagnosed with lupus, rheumatoid arthritis, and scleroderma. One sample was obtained from a person diagnosed with systemic lupus erythematosus (SLE) undergoing active treatment with methotrexate, Celebrex, prednisone, and Benlysta. A second sample was obtained from a person diagnosed with scleroderma (SSc) before receiving treatment. A third sample was obtained from a person diagnosed with rheumatoid arthritis (RA) undergoing active treatment with Nabumetone. All samples were collected following informed consent.
The PBMCs were thawed, washed, and resuspended in AIM V media with 5% human AB serum (hAB) at a concentration of 1×10^6 cells/mL. PBMCs were seeded in a 24 well plate (1×10^6 cells/well) and treated with a 17 μM of LX-101 or hydrochloric acid (HCl) as a vehicle control. […]
After the three day incubation with LX-101 or the vehicle control, the PBMCs were blocked with human TruStain FcX Fc receptor blocking solution, and stained with an antibody mixture with markers shown in Table 2. […] Data were analyzed with Kaluza software.
The effect of LX-101 was analyzed for both the bulk PBMC and IGF-1R^+ subpopulations. The percentages of live, B cells, CD4^+ T cells, CD8^+ T cells, NK cells, and NKT cells were determined.
Background: A flow cytometer gives signals particle by particle.

Test [3] deals with IGF-1R+ subpopulations of PBMCs from patients with SLE, RA and SSc. As to the kind of experiment: Effect of LX-101 on IGF-1R+ PBMC subpopulations (percentage of live IGF-1R+ cells by flow cytometry). Format: cell-based, human. The following applies: 17 μM LX-101, three days. The source says:
Frozen peripheral blood mononuclear cells (PBMCs) were obtained from Discovery Life Sciences from patients diagnosed with lupus, rheumatoid arthritis, and scleroderma. One sample was obtained from a person diagnosed with systemic lupus erythematosus (SLE) undergoing active treatment with methotrexate, Celebrex, prednisone, and Benlysta. A second sample was obtained from a person diagnosed with scleroderma (SSc) before receiving treatment. A third sample was obtained from a person diagnosed with rheumatoid arthritis (RA) undergoing active treatment with Nabumetone. All samples were collected following informed consent. The PBMCs were thawed, washed, and resuspended in AIM V media with 5% human AB serum (hAB) at a concentration of 1×10^6 cells/mL. PBMCs were seeded in a 24 well plate (1×10^6 cells/well) and treated with a 17 μM of LX-101 or hydrochloric acid (HCl) as a vehicle control. LX-101 was supplied at a concentration of 4 mM (where the concentration is expressed in terms of the amount of methotrexate in the drug) in 10 mM HC1. The vehicle control groups received the same concentration of HCl as that in the LX-101 solution received by the treatment group. PBMCs were incubated at 37° C. with 5% CO2 for three days. After the three day incubation with LX-101 or the vehicle control, the PBMCs were blocked with human TruStain FcX Fc receptor blocking solution, and stained with an antibody mixture with markers shown in Table 2. Cells were fixed and flow cytometric data were collected for 50,000 live cell events using a BD LSRFortessa X-20 flow cytometer. Data were analyzed with Kaluza software. The effect of LX-101 was analyzed for both the bulk PBMC and IGF-1R^+ subpopulations. The percentages of live, B cells, CD4^+ T cells, CD8^+ T cells, NK cells, and NKT cells were determined.

The next test relates to IGFBPs. The following applies: known in the art (U.S. Pat. No. 4,876,242; Francis et al. 1992); cited from earlier work.
The target in the next test is IGF-1R (Homo sapiens, UniProt P08069). The following applies: Hakuno et al. 2018; cited from earlier work.
Setting [4] is: PBMCs from SLE, RA and SSc patients.

The values below come from patent US20250367267A1, “TREATING AUTOIMMUNE DISEASES WITH INSULIN-LIKE GROWTH FACTOR 1 RECEPTOR LIGAND CONJUGATED TO AN AGENT” (Lirum Therapeutics, Inc., priority 2022, published 2025).

“Also recorded” adds a separate entry of the source.

Chain of IGF-1R (P08069 31-736 limits assumed, species assumed): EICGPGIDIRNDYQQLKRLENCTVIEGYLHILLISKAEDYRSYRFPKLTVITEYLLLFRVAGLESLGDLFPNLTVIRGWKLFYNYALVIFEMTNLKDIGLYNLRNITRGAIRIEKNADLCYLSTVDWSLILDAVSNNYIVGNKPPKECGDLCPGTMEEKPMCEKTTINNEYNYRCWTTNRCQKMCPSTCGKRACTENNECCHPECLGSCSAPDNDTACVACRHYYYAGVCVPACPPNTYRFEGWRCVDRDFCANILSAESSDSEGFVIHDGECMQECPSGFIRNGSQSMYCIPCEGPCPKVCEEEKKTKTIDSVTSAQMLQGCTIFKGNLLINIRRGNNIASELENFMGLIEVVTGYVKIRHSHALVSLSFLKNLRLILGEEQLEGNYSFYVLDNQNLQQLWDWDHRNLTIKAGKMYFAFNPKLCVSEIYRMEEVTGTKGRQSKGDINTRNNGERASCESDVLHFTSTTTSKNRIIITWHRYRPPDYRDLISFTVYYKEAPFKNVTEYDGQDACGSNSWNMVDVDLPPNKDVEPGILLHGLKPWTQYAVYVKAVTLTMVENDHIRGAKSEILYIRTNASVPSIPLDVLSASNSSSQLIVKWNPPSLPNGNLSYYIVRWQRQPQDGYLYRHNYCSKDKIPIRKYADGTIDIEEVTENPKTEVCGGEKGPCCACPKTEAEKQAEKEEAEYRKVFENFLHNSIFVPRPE
Chain of IGF-1R (P08069 741-1367 partner limits assumed, species assumed): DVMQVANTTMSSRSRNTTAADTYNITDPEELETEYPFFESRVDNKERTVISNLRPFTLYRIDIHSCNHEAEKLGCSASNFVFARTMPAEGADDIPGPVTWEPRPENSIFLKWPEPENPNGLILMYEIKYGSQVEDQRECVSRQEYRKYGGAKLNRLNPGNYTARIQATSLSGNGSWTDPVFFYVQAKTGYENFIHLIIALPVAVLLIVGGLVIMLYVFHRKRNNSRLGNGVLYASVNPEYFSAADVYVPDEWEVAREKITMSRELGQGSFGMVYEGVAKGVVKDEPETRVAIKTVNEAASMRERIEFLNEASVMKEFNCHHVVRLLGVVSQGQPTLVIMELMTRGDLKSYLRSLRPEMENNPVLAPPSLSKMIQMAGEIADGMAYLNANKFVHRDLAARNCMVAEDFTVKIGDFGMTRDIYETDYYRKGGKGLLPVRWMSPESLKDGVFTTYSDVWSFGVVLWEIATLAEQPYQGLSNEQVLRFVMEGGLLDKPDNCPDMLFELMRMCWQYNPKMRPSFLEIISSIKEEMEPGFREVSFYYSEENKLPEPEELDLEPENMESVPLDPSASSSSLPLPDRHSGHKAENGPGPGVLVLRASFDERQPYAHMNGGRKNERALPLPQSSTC

Consider “Benlysta: a B lymphocyte stimulator (BLyS)-specific inhibitor”, for which, in test [1], the “number of CD3+ T cells” value is reported as “not affected” and the “total CD19+ B cells in the peripheral blood” value was “decrease”.

For the molecule LX-101, in test [2], the “off-target effects in IGF-1R− cells” value was “Little off-target effects”; the “percentage of live B cells, CD4+ T cells, CD8+ T cells, NK cells and NKT cells in the bulk PBMC population, vs vehicle control” value was “Little difference”. In test [3] (setting [4]), the “percentage of IGF-1R+CD19+ B cells vs vehicle control” value is given as “reduced percentages; also recorded: reduction” and the “percentage of live IGF-1R+ cells (all subpopulations) vs vehicle control” value is “marked reductions; also recorded: Reduced percentages”. Also, in test [3] (SLE, RA and SSc samples), the “IGF-1R+CD3+CD8+ T cells vs vehicle control” value is “reduction; also recorded: reduced percentages” and the “IGF-1R+CD56+CD3+ natural killer T (NKT) cells vs vehicle control” value was “modest reduction; also recorded: reduced percentages”. Besides, the “IGF-1R+CD3+CD4+ T cells vs vehicle control” value in test [3] (SLE, RA and SSc samples, especially RA sample) is reported as “substantial reduction; also recorded: reduced percentages”. In addition, the “IGF-1R+CD56+CD3− natural killer (NK) cells vs vehicle control” value in test [3] (particularly samples from SLE and RA patients) was “reduction; also recorded: reduced percentages”.

In the case of “R3-IGF-1: glutamic acid in position 3 of native human IGF-1 is substituted by arginine”, in the test on IGFBPs, the “binding affinity for IGFBPs compared to wildtype IGF-1” value is on record as “reduced binding affinity”.

Take “des (1-3) IGF-1: lacks the first three amino acids of human IGF-1”: the “binding affinity for IGFBPs compared to wildtype IGF-1” value in the test with IGFBPs is given as “reduced binding affinity”.

For “insulin: native ligand to the IGF-1R; two chains connected by disulfide bonds”, the “affinity for IGF-1R, fold lower than the IGFs” value with IGF-1R was 50- to 100 fold.

B1: IGF132: first 17 amino acids of the B chain of insulin replace the first 16 amino acids of human IGF-1 (protein)
chain: FVNQHLCGSHLVEALYLVCGDRGFYFNKPTGYGSSSRRAPQTGIVDECCFRSCDLRRLEMYCAPLKPAKSA
Consider B1, for which the “binding affinity for IGFBPs compared to wildtype IGF-1” value in the test on IGFBPs is “reduced binding affinity”.
